Here are results for 17 compounds from patent US20240309003A1, “HETEROCYCLIC COMPOUNDS AS TRIGGERING RECEPTOR EXPRESSED ON MYELOID CELLS 2 AGONISTS AND METHODS OF USE” (Vigil Neuroscience, Inc., priority 2021, published 2024).

SMILES strings stand for the structures.

This test concerns the target T1, human TREM2 (Homo sapiens, UniProt Q9NZC2).
T1 construct: expressed in transfected cells; host or cells: HEK293T
Nature of the test: TREM2 agonist potency by cellular phosphorylation of Syk (AlphaLisa) in HEK293T-hTREM2 cells. It counts as cell-based. The gist of the method:
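Agonist EC50 from a variable-slope four-parameter fit of % activation, based on AlphaLisa phospho-Syk levels in lysates. Cells: HEK293T-hTREM2 (with DAP12), treated 45 min at room temperature with compound in assay buffer.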

Where [1] appears, read: HEK293 cells expressing human TREM2 and DAP12, Table D.
The mark [2] stands for this setting: HEK293 cells expressing human TREM2 and DAP12, Table D-2.

T1 sequence (Q9NZC2 19-230): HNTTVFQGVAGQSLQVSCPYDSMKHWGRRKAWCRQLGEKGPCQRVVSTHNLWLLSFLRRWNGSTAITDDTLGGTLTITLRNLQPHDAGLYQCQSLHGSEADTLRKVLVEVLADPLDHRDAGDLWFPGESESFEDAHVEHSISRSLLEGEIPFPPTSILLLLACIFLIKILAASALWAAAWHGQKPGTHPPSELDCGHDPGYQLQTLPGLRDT
T1 sequence (O43914 22-113 partner): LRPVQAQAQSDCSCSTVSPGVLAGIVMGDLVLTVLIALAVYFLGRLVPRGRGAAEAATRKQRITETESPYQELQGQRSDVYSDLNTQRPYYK

Broadly, the EC50 is the concentration giving half of the maximal effect. Under setting [1], `[2H]C([2H])([2H])c1nc2nc([C@H]3CCO[C@@H](c4cnn(C5CC5)c4)C3)nc(-c3ccc(Cl)cc3F)c2nc1C([2H])([2H])[2H]` [Example 181, 4-(4-chloro-2-fluorophenyl)-2-((2R,4S)-2-(1-cyclopropyl-1H-pyrazol-4-yl)tetrahydro-2H-pyran-4-yl)-6,7-bis(methyl-d3)pteridine] yielded an EC50 of less than 50 nM.

The compound `COc1ncccc1[C@H]1C[C@@H](c2nc(-c3ccc(F)cc3F)c3nc(C)c(C)nc3n2)CCO1` [Example 161, 4-(2,4-difluorophenyl)-2-((2R,4S)-2-(2-methoxypyridin-3-yl)tetrahydro-2H-pyran-4-yl)-6,7-dimethylpteridine] showed an EC50 under setting [1] of 50 to 500 nM.

`Cc1nc2nc(C3CCO[C@@H](c4cnn(C5CC5)c4)C3)nc([C@H]3C[C@H](C(F)(F)F)C3)c2nc1C` (stereo partly drawn) [Example I-1432, 2-[(2R)-2-(1-cyclopropylpyrazol-4-yl)tetrahydropyran-4-yl]-6,7-dimethyl-4-[3-(trifluoromethyl)cyclobutyl]pteridine] registered an EC50 under setting [2] of less than 50 nM.

Take `Cc1nc2nc(-c3ccc(Cl)cc3F)cc([C@@H]3CCO[C@@H](c4cnn(C5CC5)c4)C3)c2nc1C` [Example 236, 6-(4-chloro-2-fluorophenyl)-8-((2R,4R)-2-(1-cyclopropyl-1H-pyrazol-4-yl)tetrahydro-2H-pyran-4-yl)-2,3-dimethylpyrido[2,3-b]pyrazine]: the EC50 under setting [1] was in the range of 50 to 500 nM.

Consider `Cc1nc2nc([C@@H]3CCO[C@@H](c4cnn(C5CC5)c4)C3)cc(-c3ccc(Cl)cc3F)c2nc1C` [Example 223, 8-(4-chloro-2-fluorophenyl)-6-((2R,4R)-2-(1-cyclopropyl-1H-pyrazol-4-yl)tetrahydro-2H-pyran-4-yl)-2,3-dimethylpyrido[2,3-b]pyrazine], for which the EC50 under setting [1] is 50 to 500 nM.

As to `[2H]C1([2H])C[C@H](c2nc(-c3ccc(F)cc3F)c3nc(C)c(C)nc3n2)C[C@H](c2cnn(C3CC3)c2)O1` [Example 171, 2-((2R,4S)-2-(1-cyclopropyl-1H-pyrazol-4-yl)tetrahydro-2H-pyran-4-yl-6,6-d2)-4-(2,4-difluorophenyl)-6,7-dimethylpteridine], under setting [1], the EC50 lay within 50 to 500 nM.

In the case of `Cc1nc2nc([C@H]3CCO[C@@H](c4cnn(C5CC5)c4)C3)nc(-c3ccc(C(F)(F)F)cc3)c2nc1C` [Example 139], under setting [1], the EC50 was less than 50 nM.

Under setting [2], `Cc1nc2nc([C@H]3CCO[C@@H](c4cnn(C56CC(C5)C6)c4)C3)nc(-c3ccc(F)cc3F)c2nc1C` [Example I-1668, 2-[(2R,4S)-2-[1-(1-bicyclo [1.1.1]pentanyl)pyrazol-4-yl]tetrahydropyran-4-yl]-4-(2,4-difluorophenyl)-6,7-dimethyl-pteridine] gave a concentration giving a half-maximal response (EC50) of less than 50 nM.

Under setting [2], `Cc1nc2nc(N3C[C@@H](C4CC4)O[C@@H](c4cnn(C5CC5)c4)C3)nc(-c3ccc(F)cc3F)c2nc1C` [Example I-1381] showed an EC50 of less than 50 nM.

Turning to `Cc1nc2nc(-c3cc(-c4cnn(C5CC5)c4)c(=O)n(C)c3)nc(-c3ccc(F)cc3F)c2nc1C` [Example I-1461, 3-(1-cyclopropyl-1H-pyrazol-4-yl)-5-(4-(2,4-difluorophenyl)-6,7-dimethylpteridin-2-yl)-1-methylpyridin-2(1H)-one], under setting [2], the EC50 was in the range of 50 to 500 nM.

Regarding `Cc1nc2nc([C@H]3CCO[C@@H](c4cnc(C5CC5)o4)C3)nc(-c3ccc(F)cc3F)c2nc1C` [Example I-1699, 2-cyclopropyl-5-[(2R,4S)-4-[4-(2,4-difluorophenyl)-6,7-dimethyl-pteridin-2-yl]tetrahydropyran-2-yl]oxazole], under setting [2], the EC50 lay within 50 to 500 nM.

`Cc1cnc2c(C34CC(C(F)(F)F)(C3)C4)nc([C@H]3C[C@@H](C)O[C@@H](c4cnn(C5CC5)c4)C3)nc2n1` [Example 140, 2-((2R,4S,6R)-2-(1-cyclopropyl-1H-pyrazol-4-yl)-6-methyltetrahydro-2H-pyran-4-yl)-7-methyl-4-(3-(trifluoromethyl)bicyclo[1.1.1]pentan-1-yl)pteridine]: the EC50 under setting [1] lay in the range of 500 to 3000 nM.

Take `Cc1nc2nc([C@H]3CCO[C@@H](c4cnn(C5CC(F)C5)c4)C3)nc(C34CC(C(F)(F)F)(C3)C4)c2nc1C` (stereo in doubt) [Example 135, 2-((2R,4S)-2-(1-(3-fluorocyclobutyl)-1H-pyrazol-4-yl)tetrahydro-2H-pyran-4-yl)-6,7-dimethyl-4-(3-(trifluoromethyl)bicyclo[1.1.1]pentan-1-yl)pteridine]: the EC50 under setting [1] is 50 to 500 nM.

As to `Cc1nc2nc(N3C[C@@H](C)O[C@@H](c4cnn(C5CC5)c4)C3)nc(-c3cc(C(F)F)c(F)cc3F)c2nc1C` (stereo in doubt) [Example I-1706, (2S,6R)-2-(1-cyclopropylpyrazol-4-yl)-4-[4-[5-(difluoromethyl)-2,4-difluoro-phenyl]-6,7-dimethyl-pteridin-2-yl]-6-methyl-morpholine], the EC50 under setting [2] was less than 50 nM.

`Cc1nc2nc([C@H]3CCO[C@@H](c4cnn(C5CC5)c4)C3)nc(-c3cc(F)c(F)cc3F)c2nc1C` [Example 153, 2-((2R,4S)-2-(1-cyclopropyl-1H-pyrazol-4-yl)tetrahydro-2H-pyran-4-yl)-6,7-dimethyl-4-(2,4,5-trifluorophenyl)pteridine] yielded an EC50 under setting [1] of less than 50 nM.

For `Cc1nc2cc([C@H]3CCO[C@@H](c4cnn(C5CC5)c4)C3)nc(-c3ccc(F)cc3F)c2nc1COCC1COC1` [Example I-1505, 7-((2R,4S)-2-(1-cyclopropyl-1H-pyrazol-4-yl)tetrahydro-2H-pyran-4-yl)-5-(2,4-difluorophenyl)-2-methyl-3-((oxetan-3-ylmethoxy)methyl)pyrido[3,4-b]pyrazine], the concentration for a half-maximal effect (EC50) under setting [2] fell in the range of 500 to 3000 nM.

As to `Cc1nc2nc(N3C[C@@H](C)O[C@@H](c4ccn(C5CC5)n4)C3)nc(-c3ccc(F)cc3F)c2nc1C` [Example I-1265, (2R,6R)-2-(1-cyclopropylpyrazol-3-yl)-4-[4-(2,4-difluorophenyl)-6,7-dimethyl-pteridin-2-yl]-6-methyl-morpholine], the EC50 under setting [2] lay in the range of 50 to 500 nM.
